From PubChem BioAssay (NCI)
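Grown in 96-well plates, cells were treated for 48 hours with each compound at five concentrations. Insufficient inhibition: endpoint recorded as highest concentration tested. TGI denotes the concentration required for complete inhibition of growth.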

Assays:
Assay in all cases: NCI-60 cell line screen, 48 h
[1] = test system: MDA-MB-231 breast
[2] = test system: UO-31 renal
[3] = test system: SK-MEL-5 melanoma
[4] = test system: MOLT-4 leukemia
[5] = test system: HT29 colon
[6] = test system: OVCAR-4 ovarian
[7] = test system: HCT-15 colon
[8] = test system: 786-0 renal
[9] = test system: ACHN renal
[10] = test system: OVCAR-8 ovarian
[11] = test system: SW-620 colon
[12] = test system: HOP-92 NSCLC
[13] = test system: OVCAR-5 ovarian
[14] = test system: SNB-75 CNS
[15] = test system: SN12C renal
[16] = test system: NCI-H23 lung
[17] = test system: RPMI-8226 leukemia
[18] = test system: MCF7 breast

Cc1ccc2nc(-c3ccc(N)c(I)c3)sc2c1
TGI [1]: > 100 µM
TGI [2]: 26.2 µM
TGI [3]: > 100 µM
TGI [4]: > 100 µM
TGI [5]: 34.8 µM
TGI [6]: 41.9 µM
TGI [7]: 23.2 µM
TGI [8]: 32.7 µM
TGI [9]: > 100 µM
TGI [10]: > 100 µM
TGI [11]: 57.8 µM
TGI [12]: 71.5 µM
TGI [13]: > 100 µM
TGI [14]: > 100 µM

COc1cc2c(cc1OC)C(O)[C@H](Br)C(C)(C)O2 (stereo partly specified)
TGI [2]: > 100 µM
TGI [3]: > 100 µM
TGI [4]: > 100 µM
TGI [15]: > 100 µM
TGI [5]: > 100 µM
TGI [6]: > 100 µM
TGI [7]: > 100 µM
TGI [8]: > 100 µM
TGI [9]: > 100 µM
TGI [16]: > 100 µM
TGI [10]: > 100 µM
TGI [11]: > 100 µM
TGI [12]: > 100 µM
TGI [17]: > 100 µM
TGI [13]: > 100 µM
TGI [14]: > 100 µM

Cc1cccc(NC(=O)/C=C/c2ccc(N(CCC#N)CCC#N)cc2C)c1
TGI [2]: > 100 µM
TGI [3]: > 100 µM
TGI [4]: > 100 µM
TGI [15]: > 100 µM
TGI [5]: > 100 µM
TGI [6]: > 100 µM
TGI [7]: > 100 µM
TGI [8]: > 100 µM
TGI [9]: > 100 µM
TGI [16]: > 100 µM
TGI [10]: > 100 µM
TGI [11]: > 100 µM
TGI [12]: > 100 µM
TGI [17]: > 100 µM
TGI [13]: > 100 µM
TGI [14]: > 100 µM

Clc1ccc(-c2c(C3=NCCN3)nnn2-c2ccc(Cl)cc2)cc1
TGI [2]: 64.5 µM
TGI [3]: 30.5 µM
TGI [4]: 29 µM
TGI [15]: > 100 µM
TGI [5]: 36.2 µM
TGI [6]: > 100 µM
TGI [7]: > 100 µM
TGI [8]: 58.4 µM
TGI [9]: > 100 µM
TGI [16]: > 100 µM
TGI [10]: > 100 µM
TGI [11]: 73.8 µM
TGI [12]: 50.2 µM
TGI [17]: 38.8 µM
TGI [13]: > 100 µM
TGI [14]: 48.3 µM

O=[N+]([O-])c1ccc(-n2nnc(C3=NCCCN3)c2-c2ccc(Cl)cc2)cc1
TGI [2]: > 100 µM
TGI [3]: > 100 µM
TGI [4]: > 100 µM
TGI [15]: > 100 µM
TGI [5]: > 100 µM
TGI [6]: > 100 µM
TGI [7]: > 100 µM
TGI [8]: > 100 µM
TGI [9]: > 100 µM
TGI [16]: > 100 µM
TGI [10]: > 100 µM
TGI [11]: > 100 µM
TGI [12]: > 100 µM
TGI [17]: > 100 µM
TGI [13]: > 100 µM
TGI [14]: > 100 µM

N#C/C(=C\c1ccc(O)c(O)c1)C(N)=O
TGI [2]: > 100 µM
TGI [4]: 38.6 µM
TGI [15]: > 100 µM
TGI [5]: > 100 µM
TGI [6]: > 100 µM
TGI [7]: > 100 µM
TGI [8]: > 100 µM
TGI [9]: > 100 µM
TGI [16]: 93.8 µM
TGI [10]: > 100 µM
TGI [11]: > 100 µM
TGI [12]: > 100 µM
TGI [17]: > 100 µM
TGI [13]: > 100 µM
TGI [14]: > 100 µM

CCOC(=O)C1=C(Nc2cccc(OC)c2)OCC1=O
TGI [1]: > 100 µM
TGI [2]: > 100 µM
TGI [3]: > 100 µM
TGI [4]: > 100 µM
TGI [5]: > 100 µM
TGI [6]: > 100 µM
TGI [7]: > 100 µM
TGI [8]: > 100 µM
TGI [9]: > 100 µM
TGI [16]: > 100 µM
TGI [10]: > 100 µM
TGI [11]: > 100 µM
TGI [18]: > 100 µM
TGI [12]: > 100 µM
TGI [17]: > 100 µM
TGI [14]: > 100 µM

Nc1ccc(C(=O)NN2C(=O)C(Cl)C2c2ccccc2Cl)cc1 (stereo unspecified)
TGI [2]: 30.8 µM
TGI [3]: 29.5 µM
TGI [4]: 8.1 µM
TGI [5]: 23.5 µM
TGI [6]: 27.1 µM
TGI [7]: 10.2 µM
TGI [8]: 3.35 µM
TGI [9]: 30 µM
TGI [16]: 24.9 µM
TGI [10]: 10.8 µM
TGI [11]: 10.7 µM
TGI [12]: 14.9 µM
TGI [17]: > 100 µM
TGI [13]: 28.4 µM
TGI [14]: 31.3 µM

Cc1ccc2c(c1CCCC(C)(C)O)C(=O)C(=O)C(C(C)C)=C2O
TGI [2]: > 100 µM
TGI [3]: > 100 µM
TGI [4]: > 100 µM
TGI [15]: > 100 µM
TGI [5]: > 100 µM
TGI [6]: > 100 µM
TGI [7]: > 100 µM
TGI [8]: > 100 µM
TGI [9]: > 100 µM
TGI [16]: > 100 µM
TGI [10]: > 100 µM
TGI [11]: > 100 µM
TGI [12]: > 100 µM
TGI [17]: > 100 µM
TGI [14]: > 100 µM

CCOC(=O)c1nc2c(Cl)c3ncccc3cc2[nH]c1=O
TGI [1]: > 100 µM
TGI [2]: > 100 µM
TGI [3]: 22.7 µM
TGI [4]: 45.6 µM
TGI [5]: > 100 µM
TGI [6]: > 100 µM
TGI [7]: 56.5 µM
TGI [8]: > 100 µM
TGI [9]: > 100 µM
TGI [16]: > 100 µM
TGI [10]: > 100 µM
TGI [11]: > 100 µM
TGI [18]: > 100 µM
TGI [12]: > 100 µM
TGI [13]: > 100 µM
TGI [14]: > 100 µM

COc1ccccc1NC(=O)C1=C(C)NC(C)=C(C(=O)Nc2ccccc2OC)C1c1ccc([N+](=O)[O-])cc1
TGI [3]: > 100 µM
TGI [4]: > 100 µM
TGI [15]: > 100 µM
TGI [5]: > 100 µM
TGI [6]: > 100 µM
TGI [7]: > 100 µM
TGI [8]: > 100 µM
TGI [9]: > 100 µM
TGI [16]: > 100 µM
TGI [10]: > 100 µM
TGI [11]: > 100 µM
TGI [17]: > 100 µM
TGI [13]: 90.8 µM
TGI [14]: > 100 µM

Cc1cn2c(=O)c3ccccc3nc2s1
TGI [2]: > 100 µM
TGI [3]: > 100 µM
TGI [4]: > 100 µM
TGI [15]: > 100 µM
TGI [5]: > 100 µM
TGI [6]: > 100 µM
TGI [8]: > 100 µM
TGI [9]: > 100 µM
TGI [16]: > 100 µM
TGI [10]: > 100 µM
TGI [11]: > 100 µM
TGI [12]: > 100 µM
TGI [17]: > 100 µM
TGI [13]: > 100 µM
TGI [14]: > 100 µM

COC(=O)C12C3C4C5(C(=O)OC)C(C1C35C(=O)N(C(C)C)C(C)C)C42C(=O)N(C(C)C)C(C)C (stereo unspecified)
TGI [2]: > 50 µM
TGI [3]: > 50 µM
TGI [4]: > 50 µM
TGI [15]: > 50 µM
TGI [5]: > 50 µM
TGI [6]: > 50 µM
TGI [7]: > 33.7 µM
TGI [8]: > 50 µM
TGI [9]: > 50 µM
TGI [16]: > 50 µM
TGI [10]: > 50 µM
TGI [11]: > 43.6 µM
TGI [12]: > 50 µM
TGI [17]: > 50 µM
TGI [13]: > 50 µM
TGI [14]: > 50 µM

O=C(CCC/C(CC(=O)c1ccc(Br)cc1)=N\O)Nc1ccccc1
TGI [2]: > 100 µM
TGI [3]: > 100 µM
TGI [4]: > 100 µM
TGI [15]: > 100 µM
TGI [5]: > 100 µM
TGI [6]: > 100 µM
TGI [8]: > 100 µM
TGI [9]: > 100 µM
TGI [16]: > 100 µM
TGI [10]: > 100 µM
TGI [11]: > 100 µM
TGI [12]: > 100 µM
TGI [17]: > 100 µM
TGI [13]: > 100 µM
TGI [14]: > 100 µM

O=C(CN1CCCCC1)N1CCc2c([nH]c3ccccc23)C1c1cccnc1 (stereo unspecified)
TGI [2]: > 100 µM
TGI [3]: > 100 µM
TGI [4]: > 100 µM
TGI [15]: > 100 µM
TGI [5]: > 100 µM
TGI [6]: > 100 µM
TGI [7]: > 100 µM
TGI [8]: > 100 µM
TGI [9]: > 100 µM
TGI [16]: > 100 µM
TGI [10]: > 100 µM
TGI [11]: > 100 µM
TGI [12]: > 100 µM
TGI [17]: > 100 µM
TGI [13]: > 100 µM
TGI [14]: > 100 µM
